# Results from patent US12729211B2, “Gold(III) compounds and cancer cell-selective modulation of mitochondrial respiration and metabolism” (University of Kentucky Research Foundation, priority 2020, dated 2026).
# Assays:
# MDA-MB-468 [1] = experiment: Mitochondrial ROS (mtROS) by MitoSOX FACS; type: cell-based; conditions: MitoTEMPO 1 μM 2 hours, then 2a 10 μM 2 hours
# Text: Second, to solidify the specificity of ROS, the use of MitoSOX was employed, which is a mitochondrial targeting dye that specifically reacts with superoxide.
# First, the effect of pre-treatment on mtROS production was examined using flow cytometry. Since MitoTEMPO is a specific scavenger for superoxide, the potential to alleviate mitochondrial oxidative damage was investigated by scavenging mtROS once produced. […] In this experiment, Rotenone, a mitochondrial complex I inhibitor, was used as a positive control.
# MDA-MB-468 [2] = experiment: MMP by JC-1 FACS, MDA-MB-468; type: cell-based
# Text: The MMP depolarizing effect on the panel of TBNCs and healthy models was examined with the use of flow assisted cell sorting (FACS) (FIG. 19A-C). JC-1 was used, a cationic, fluorometric dye that is dependent on the negative charge of the MMP. It is represented as J-aggregates (red fluorescence) when it accumulates into the mitochondria and J-monomers (green fluorescence) when it is located outside the mitochondrial membrane due to loss of the electrochemical gradient.
# Next, the effect of MMP was examined when pretreated with MitoTEMPO (1 μM, 2 hours) (FIG. 34).
compound,measurement,setting,value
CC1(C)CC(NC(=O)C[P+](c2ccccc2)(c2ccccc2)c2ccccc2)CC(C)(C)N1[O] [MitoTEMPO],decrease in mtROS versus the non-pretreated group,MDA-MB-468 [1],1.8 fold
Carbonyl cyanide m-chlorophenyl hydrazine [CCCP],"loss of MMP, MitoTEMPO pretreatment",MDA-MB-468 [2],84%
same,"loss of MMP, no pretreatment",MDA-MB-468 [2],95%
